From article PMC9762708 (Annals of Surgery, 2022)
Residues, ends and D or L forms follow the SMILES beside them.

Key:
Test in all cases: MIC of phase IIb clinical isolates
Format in all cases: cell-based
Escherichia coli = conditions: 22 strains
[1] = tested on: Staphylococcus epidermidis; conditions: 126 strains
Pseudomonas aeruginosa = conditions: 74 strains
[2] = tested on: Staphylococcus haemolyticus; conditions: 23 strains
Enterobacter cloacae = conditions: 63 strains
Klebsiella pneumoniae = conditions: 45 strains
Enterococcus faecalis = conditions: 25 strains
Acinetobacter baumannii = conditions: 31 strains
Staphylococcus aureus = conditions: 320 strains

## CO/N=C(\C(=O)N[C@@H]1C(=O)N2C(C(=O)O)=C(CSc3nc(=O)c(=O)[nH]n3C)CS[C@H]12)c1csc(N)n1 [Ceftriaxone, ceftriaxone]
Escherichia coli
  Strains Resistant to Control Antibiotics: 13 (59.1) n (%)
[1]
  Strains Resistant to Control Antibiotics: No
Pseudomonas aeruginosa
  Strains Resistant to Control Antibiotics: 74 (100) n (%)
[2]
  Strains Resistant to Control Antibiotics: No
Enterobacter cloacae
  Strains Resistant to Control Antibiotics: 8 n (%)
Klebsiella pneumoniae
  Strains Resistant to Control Antibiotics: 18 (40.0) n (%)
Enterococcus faecalis
  Strains Resistant to Control Antibiotics: 25 (100) n (%)
Acinetobacter baumannii
  Strains Resistant to Control Antibiotics: 14 (45.2) n (%)

## C[C@@H](O)[C@H]1C(=O)N2C(C(=O)O)=C(SCCN=CN)C[C@H]12 [Imipenem, imipenem]
Escherichia coli
  Strains Resistant to Control Antibiotics: 0 n (%)
Pseudomonas aeruginosa
  Strains Resistant to Control Antibiotics: 2 n (%)
Enterobacter cloacae
  Strains Resistant to Control Antibiotics: 8 n (%)
Klebsiella pneumoniae
  Strains Resistant to Control Antibiotics: 1 n (%)
Acinetobacter baumannii
  Strains Resistant to Control Antibiotics: 15 (48.4) n (%)

## C[C@H]1COc2c(N3CCN(C)CC3)c(F)cc3c(=O)c(C(=O)O)cn1c23 [Levofloxacin, levofloxacin]
Escherichia coli
  Strains Resistant to Control Antibiotics: 13 (59.1) n (%)
[1]
  Strains Resistant to Control Antibiotics: 41 (32.5) n (%)
Pseudomonas aeruginosa
  Strains Resistant to Control Antibiotics: 8 n (%)
[2]
  Strains Resistant to Control Antibiotics: 14 (60.9) n (%)
Enterobacter cloacae
  Strains Resistant to Control Antibiotics: 2 n (%)
Staphylococcus aureus
  Strains Resistant to Control Antibiotics: 56 (17.5) n (%)
Klebsiella pneumoniae
  Strains Resistant to Control Antibiotics: 14 (31.1) n (%)
Enterococcus faecalis
  Strains Resistant to Control Antibiotics: 2 n (%)
Acinetobacter baumannii
  Strains Resistant to Control Antibiotics: 5 n (%)

## CC[C@H](C)[C@H](NC(=O)[C@H](C)NC(=O)[C@H](CCCCN)NC(=O)[C@H](CC(C)C)NC(=O)[C@H](C)NC(=O)[C@@H](NC(=O)[C@H](Cc1c[nH]cn1)NC(=O)[C@H](CC(C)C)NC(=O)[C@@H](NC(=O)[C@@H](NC(=O)[C@H](CCCCN)NC(=O)[C@H](C)NC(=O)[C@H](C)NC(=O)[C@H](CO)NC(=O)[C@H](CCCCN)NC(=O)[C@H](Cc1ccccc1)NC(=O)[C@@H](NC(=O)[C@H](CCCCN)NC(=O)[C@H](CC(C)C)NC(=O)[C@H](Cc1ccccc1)NC(=O)[C@H](CO)NC(=O)[C@H](CCCCN)NC(=O)[C@H](Cc1c[nH]c2ccccc12)NC(=O)[C@H](CCCCN)NC(C)=O)[C@@H](C)O)[C@@H](C)O)C(C)C)[C@@H](C)O)C(=O)N[C@@H](CO)C(=O)N[C@@H](CO)C(N)=O [PL-5, Peceleganan] (Ac-KWKSFLKTFKSAAKTVLHTALKAISS-NH2; N-terminus and C-terminus assumed)
Escherichia coli
  MIC50: 8 µg/mL
  MIC90: 16 µg/mL
[1]
  MIC50: 4 µg/mL
  MIC90: 4 µg/mL
Pseudomonas aeruginosa
  MIC90: 8 µg/mL
[2]
  MIC50: 2 µg/mL
  MIC90: 8 µg/mL
Enterococcus faecalis
  MIC50: 64 µg/mL
  MIC90: 128 µg/mL

## CN[C@H](CC(C)C)C(=O)N[C@H]1C(=O)N[C@@H](CC(N)=O)C(=O)N[C@H]2C(=O)N[C@H]3C(=O)N[C@H](C(=O)N[C@H](C(=O)O)c4cc(O)cc(O)c4-c4cc3ccc4O)[C@H](O)c3ccc(c(Cl)c3)Oc3cc2cc(c3O[C@@H]2O[C@H](CO)[C@@H](O)[C@H](O)[C@H]2O[C@H]2C[C@](C)(N)[C@H](O)[C@H](C)O2)Oc2ccc(cc2Cl)[C@H]1O [Vancomycin, vancomycin]
[1]
  Strains Resistant to Control Antibiotics: 0 n (%)
[2]
  Strains Resistant to Control Antibiotics: 0 n (%)
Staphylococcus aureus
  Strains Resistant to Control Antibiotics: 0 n (%)
Enterococcus faecalis
  Strains Resistant to Control Antibiotics: 0 n (%)
